From patent US20080057529A1, “Method for Identifying Histone Deacetylase Inhibitors” (priority 2003, published 2008)

How the values were obtained:
Assay type in all cases: cell-based, human
HeLa cells = experiment: Cell death in transiently transfected HeLa cells; conditions: after 6 hours; TSA 300 nM, Apicidin 1 μM; transfected HeLa cells
Protocol: (§1) The p21m-BLA reporter plasmid was tested in transient transfection experiments of HeLa cells to evaluate the responsiveness of the minimal p21 promoter and the Bla reporter system to known HDAC inhibitors. In the first two transfection experiments, HeLa cells were transfected with 1 or 2 μg of Bla reporter plasmid containing either p21 minimal promoter (p21m-BLA) or CMV promoter (CMV-BLA) and 0.1 μg of pCMV-Luc or pRSV-Luc control plasmids. Different DNA-FUGENE transfection reagent ratios were tested (FUGENE is available from Roche Applied Science, Indianapolis, Ind.). […] Data are summarized below in Tables 1 and 2.
(§2) The percentage of β-lactamase-positive cells increased with time independent of the presence of HDAC inhibitors and was constantly higher with p21m-BLA than with pCMV-BLA.

p21 minimal promoter [1] = experiment: Fluorometric β-lactamase activity assay in stable HeLa clone 1.17 (p21m-BLA)
Protocol: All clones were screened for the presence of stably and functional integrated copies of the p21m-BLA reporter gene transcription cassette by performing a fluorometric β-lactamase activity assay after treatment with the HDAC inhibitor Apicidin at a concentration of 1 μM (saturating dose representing 100% of Bla gene activation, i.e., 100% of HDAC inhibition). A 100 μL aliquot of cells for each stable transformant in complete DMEM was plated into a well of a 96 well plate at about 36,000 cells per well for treatment with 1 μM Apicidin (saturating dose) and a 100 μL aliquot of cells was plated into a well of a 96 well plate at 24,000 cells per well for treatment with DMSO (vehicle control). […] After 4 hours, 25 μL of complete DMEM containing Apicidin at 5× final concentration or DMSO (5%) was added to each of the wells. The cells were then grown at 37° C., 5% CO2 for about 12 to 16 hours. Afterwards, the medium was removed and 100 μL of DMEM without serum and 25 μL of FRET labeled CCF2-AM Bla substrate diluted in the appropriate buffer according to the manufacturer recommendations were each added to the cells to give a final concentration of 1 μM CCF2-AM.

p21 minimal promoter [2] = experiment: Transient transfection of HeLa cells with p21m-BLA reporter plasmid, Bla staining (blue cells); conditions: Apicidin 1 μM; for % Blue cells: Table 3, 2 μg p21m-BLA + 0.1 μg pCMV-Luc, TSA 300 nM; for Bla staining at 60 min. / fold-ind. at 60 min. (Bla): Table 6; for fold-ind. at 60 min. (Bla) / fold-ind. at 15 min. (Bla): vs DMSO; for Bla staining at 15 min / fold-ind. at 15 min. (Bla): Table 7 (repeat)
Protocol: as §1, §2
In light of the above, the lack of apparent Bla activation in the above transfection experiments might have been due to the high sensitivity of the method. Therefore, transient transfections in which an accurate titration of the reporter plasmid DNA were performed. The titration of the reporter plasmid included using amounts lower than was used above. […] The transient transfections were repeated and the result confirmed (Table 7).

p21 minimal promoter [3] = experiment: Transient transfection of HeLa cells with p21m-SEAP reporter plasmid, SEAP activity; conditions: Apicidin 1 μM; for SEAP (10 min) / SEAP activity normalised to total protein / Fold Induct. (SEAP norm) / Fold induct. (SEAP): Table 4; for Fold Induct. (SEAP norm) / Fold induct. (SEAP): vs DMSO
Protocol: To determine whether the p21 minimal promoter was responsive to HDAC inhibitors, a reporter plasmid containing the secreted alkaline phosphatase gene (SEAP) operably linked to the p21 minimal promoter (−182 through +25), pcDNA3-21m-SEAP, was tested in transient transfection experiments of HeLa cells. […] All data summarized in Tables 4 through 7 were obtained by normalizing the total amount of transfected DNA to 2.1 μg using a promoterless plasmid.

## CCC(=O)CCCCC[C@@H]1NC(=O)[C@H]2CCCCN2C(=O)[C@H]([C@@H](C)CC)NC(=O)[C@H](Cc2cn(OC)c3ccccc23)NC1=O [Apicidin]
HeLa cells
  Cell-death: not visible
p21 minimal promoter [1]; Homo sapiens, HeLa, 13 h, read-out: p21m-Bla EC50
  EC50: 170 nM
p21 minimal promoter [1]; clone 1.17, saturating amounts of Apicidin (1 μM)
  induction over DMSO (slope analysis of β-lactamase activity): ~200 fold
p21 minimal promoter [2]; only with the lowest DNA amounts
  induction of β-lactamase activity: 3- to 5 fold
p21 minimal promoter [2]; 6 hr treatment
  % Blue cells: 6%
p21 minimal promoter [2]; 12 hr treatment
  % Blue cells: 10%
p21 minimal promoter [2]; 24 hr treatment
  % Blue cells: 25%
p21 minimal promoter [2]; p21m-BLA 0 μg DNA
  Bla staining at 60 min.: 0%
  Bla staining at 15 min: 0%
p21 minimal promoter [2]; p21m-BLA 0.02 μg DNA
  Bla staining at 60 min.: 2-3%
  fold-ind. at 60 min. (Bla): 3-4 fold
  Bla staining at 15 min: 6-10%
  fold-ind. at 15 min. (Bla): 2-3 fold
p21 minimal promoter [2]; p21m-BLA 0.05 μg DNA
  Bla staining at 60 min.: 10-15%
  fold-ind. at 60 min. (Bla): 5 fold
  Bla staining at 15 min: 20-25%
  fold-ind. at 15 min. (Bla): 4-5 fold
p21 minimal promoter [2]; p21m-BLA 0.1 μg DNA
  Bla staining at 60 min.: 25-30%
  fold-ind. at 60 min. (Bla): 2 fold
  Bla staining at 15 min: 25-30%
  fold-ind. at 15 min. (Bla): 2 fold
p21 minimal promoter [2]; p21m-BLA 0.2 μg DNA
  Bla staining at 60 min.: 35-40%
  fold-ind. at 60 min. (Bla): 2 fold
  Bla staining at 15 min: 40%
  fold-ind. at 15 min. (Bla): 1.3 fold
p21 minimal promoter [2]; p21m-BLA 0.5 μg DNA
  Bla staining at 60 min.: 50%
  fold-ind. at 60 min. (Bla): 1.25 fold
  Bla staining at 15 min: 40%
  fold-ind. at 15 min. (Bla): 1 fold
p21 minimal promoter [3]; TSA 300 nM, p21m-SEAP promoter titration in HeLa
  induction of SEAP (maximum): up to 20 fold
p21 minimal promoter [3]; P21m-SEAP 0 μg DNA (total DNA 2.1 μg)
  SEAP (10 min): 11366
p21 minimal promoter [3]; P21m-SEAP 0 μg DNA
  SEAP activity normalised to total protein: 5683
  Fold Induct. (SEAP norm): 4.901 fold
  Fold induct. (SEAP): 3.5 fold
p21 minimal promoter [3]; P21m-SEAP 0.1 μg DNA (total DNA 2.1 μg)
  SEAP (10 min): 41278
p21 minimal promoter [3]; P21m-SEAP 0.1 μg DNA
  SEAP activity normalised to total protein: 27518.67
  Fold Induct. (SEAP norm): 7.691 fold
  Fold induct. (SEAP): 4.8 fold
p21 minimal promoter [3]; P21m-SEAP 0.2 μg DNA (total DNA 2.1 μg)
  SEAP (10 min): 33449
p21 minimal promoter [3]; P21m-SEAP 0.2 μg DNA
  SEAP activity normalised to total protein: 16724.5
  Fold Induct. (SEAP norm): 14.9372 fold
  Fold induct. (SEAP): 10.3 fold
p21 minimal promoter [3]; P21m-SEAP 0.5 μg DNA (total DNA 2.1 μg)
  SEAP (10 min): 81729
p21 minimal promoter [3]; P21m-SEAP 0.5 μg DNA
  SEAP activity normalised to total protein: 54486
  Fold Induct. (SEAP norm): 19.2643 fold
  Fold induct. (SEAP): 9.6 fold
p21 minimal promoter [3]; P21m-SEAP 1 μg DNA (total DNA 2.1 μg)
  SEAP (10 min): 85405
p21 minimal promoter [3]; P21m-SEAP 1 μg DNA
  SEAP activity normalised to total protein: 61003.57
  Fold Induct. (SEAP norm): 17.5478 fold
  Fold induct. (SEAP): 8.8 fold
